From ChEMBL document CHEMBL1150821, “A new metabolite from the marine bacterium Vibrio angustum S14” (2001) come the findings set out here.

Test [1] relates to Vibrio harveyi. Nature of the test: Induction of bioluminescence in Vibrio harveyi UNSW at 10 uM relative to control. It is filed as functional.
Test [2] has as its system Agrobacterium tumefaciens. Nature of the test: Induction of acylated homoserine lactone system-mediated traI-lacZ reporter gene expression in Agrobacterium tumefaciens A136 at 2.5 ug. It is filed as functional, organism-based.

The source made the active and inactive calls. The rule behind the calls is not given here.

Turning to `CCCCOC(OCC(C)C)C(C)(C)O` (centres undefined), the “fold change (FC)” value in test [1] is given as 32. In test [2], the result was Active.

`CCCC(=O)CC(=O)N[C@H]1CCOC1=O`: in test [2], the outcome was Active.

Consider `CC(O)CC(=O)N[C@H]1CCOC1=O` (some centres undefined), for which, in test [1], the “fold change (FC)” value is 128.
